Reference: US20220112187A1, “PYRAZOLOPYRIDINE AMINE COMPOUNDS FOR THE TREATMENT OF AUTOIMMUNE DISEASE” (Hoffmann-La Roche Inc., priority 2018, published 2022)

The compounds below were run against T1, human TLR8 (Homo sapiens, UniProt Q9NR97) (assay: HEK293-Blue-hTLR-8 cells assay (SEAP reporter, R848 stimulation)). Conditions: HEK293-Blue-hTLR8 cells, R848 ligand, 20 hrs incubation.
T1 sequence (Q9NR97 27-1041): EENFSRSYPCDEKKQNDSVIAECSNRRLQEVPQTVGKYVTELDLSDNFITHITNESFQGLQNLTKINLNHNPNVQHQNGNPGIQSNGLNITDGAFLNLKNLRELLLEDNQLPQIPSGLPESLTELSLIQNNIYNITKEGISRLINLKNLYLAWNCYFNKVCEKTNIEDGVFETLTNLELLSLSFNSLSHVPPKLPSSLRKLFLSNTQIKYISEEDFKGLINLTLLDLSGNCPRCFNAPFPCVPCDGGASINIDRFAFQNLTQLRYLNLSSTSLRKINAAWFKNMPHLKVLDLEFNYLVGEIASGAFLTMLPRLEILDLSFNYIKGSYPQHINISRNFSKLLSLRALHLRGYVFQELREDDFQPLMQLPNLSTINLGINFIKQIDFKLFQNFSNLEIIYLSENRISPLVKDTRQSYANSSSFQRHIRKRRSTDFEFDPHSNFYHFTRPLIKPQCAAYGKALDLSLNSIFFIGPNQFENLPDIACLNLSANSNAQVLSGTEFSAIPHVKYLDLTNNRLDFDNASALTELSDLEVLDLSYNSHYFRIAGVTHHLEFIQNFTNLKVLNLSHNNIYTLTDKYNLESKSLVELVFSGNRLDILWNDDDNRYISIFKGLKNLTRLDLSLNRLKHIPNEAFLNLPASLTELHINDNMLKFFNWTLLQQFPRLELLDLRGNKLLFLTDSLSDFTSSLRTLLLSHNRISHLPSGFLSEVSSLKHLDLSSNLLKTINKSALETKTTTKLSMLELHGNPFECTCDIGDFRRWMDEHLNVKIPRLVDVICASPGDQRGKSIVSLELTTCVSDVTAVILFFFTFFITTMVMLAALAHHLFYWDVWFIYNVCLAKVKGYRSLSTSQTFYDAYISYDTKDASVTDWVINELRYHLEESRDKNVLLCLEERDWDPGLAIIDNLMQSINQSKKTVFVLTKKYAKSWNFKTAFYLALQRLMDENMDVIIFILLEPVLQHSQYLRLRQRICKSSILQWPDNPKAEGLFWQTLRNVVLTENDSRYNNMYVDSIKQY
Assay type: cell-based
Source text: A stable HEK293-Blue-hTLR-8 cell line was purchased from InvivoGen (Cat. #: hkb-htlr8, San Diego, Calif., USA). These cells were originally designed for studying the stimulation of human TLR8 by monitoring the activation of NF-κB. A SEAP (secreted embryonic alkaline phosphatase) reporter gene was placed under the control of the IFN-β minimal promoter fused to five NF-κB and AP-1-binding sites. The SEAP was induced by activating NF-κB and AP-1 via stimulating HEK-Blue hTLR8 cells with TLR8 ligands. Therefore the reporter expression was declined by TLR8 antagonist under the stimulation of a ligand, such as R848, for incubation of 20 hrs. The cell culture supernatant SEAP reporter activity was determined using QUANTI-Blue™ kit (Cat. #: rep-qb1, Invivogen, San Diego, Ca, USA) at a wavelength of 640 nm, a detection medium that turns purple or blue in the presence of alkaline phosphatase.
HEK293-Blue-hTLR8 cells were incubated at a density of 250,000˜450,000 cells/mL in a volume of 170 μL in a 96-well plate in Dulbecco's Modified Eagle's medium (DMEM) containing 4.5 g/L glucose, 50 U/mL penicillin, […], […], 2 mM L-glutamine, 10% (v/v) heat-inactivated fetal bovine serum with addition of 20 μL test compound in a serial dilution in the presence of final DMSO at 1% and 10 μL of 60 uM R848 in above DMEM, perform incubation under 37° C. in a CO2 incubator for 20 hrs. Then 20 μL of the supernatant from each well was incubated with 180 μL Quanti-blue substrate solution at 37° C. for 2 hrs and the absorbance was read at 620˜655 nm using a spectrophotometer. The signalling pathway that TLR8 activation leads to downstream NF-κB activation has been widely accepted, and therefore similar reporter assay was modified for evaluating TLR8 antagonist.
`C[C@@H]1CN(c2ccc(C#N)n3nccc23)C[C@H](CN2CC3CNCCC32)O1` (stereo partly drawn) [Example 52, 4-[(2S,6R)-2-(3,7-diazabicyclo[4.2.0]octan-7-ylmethyl)-6-methyl-morpholin-4-yl]pyrazolo[1,5-a]pyridine-7-carbonitrile] showed an IC50 of 53 nM.
`C[C@@H]1CN(c2ccc(C#N)n3nccc23)C[C@H](CN2CCC3(CCCN3)CC2)O1` [Example 53, 4-[(2S,6R)-2-(1,8-diazaspiro[4.5]decan-8-ylmethyl)-6-methyl-morpholin-4-yl]pyrazolo[1,5-a]pyridine-7-carbonitrile] was tested, and the IC50 was 29 nM.
`C[C@@H]1CN(c2ccc(C#N)n3nccc23)C[C@H](CN2CCC(N3CCCC3)CC2)O1` [Example 54, 4-[(2R,6S)-2-methyl-6-[(4-pyrrolidin-1-yl-1-piperidyl)methyl]morpholin-4-yl]pyrazolo[1,5-a]pyridine-7-carbonitrile] showed an IC50 of 42 nM.
Work on `C[C@@H]1CN(c2ccc(C#N)n3nccc23)C[C@H](CN2CCC23CNC3)O1` [Example 55, 4-[(2S,6R)-2-(1,6-diazaspiro[3.3]heptan-1-ylmethyl)-6-methyl-morpholin-4-yl]pyrazolo[1,5-a]pyridine-7-carbonitrile] yielded an IC50 of 870 nM.
With `C[C@@H]1CN(c2ccc(C#N)n3nccc23)C[C@H](CN2CC3CCNCC32)O1` (stereo partly drawn) [Example 56, 4-[(2S,6R)-2-(3,8-diazabicyclo[4.2.0]octan-8-ylmethyl)-6-methyl-morpholin-4-yl]pyrazolo[1,5-a]pyridine-7-carbonitrile] the IC50 was 480 nM.
For `C[C@@H]1CN(c2ccc(C#N)n3nccc23)C[C@H](CN2C3CNCC2COC3)O1` [Example 57, 4-[(2R,6S)-2-methyl-6-(3-oxa-7,9-diazabicyclo[3.3.1]nonan-9-ylmethyl)morpholin-4-yl]pyrazolo[1,5-a]pyridine-7-carbonitrile], the IC50 was 62 nM.
Work on `C[C@@H]1CN(c2ccc(C#N)n3nccc23)C[C@H](CN2C3COCC2CC(N)C3)O1` (stereo partly drawn) [Example 58, 4-[(2S,6R)-2-[(7-amino-3-oxa-9-azabicyclo[3.3.1]nonan-9-yl)methyl]-6-methyl-morpholin-4-yl]pyrazolo[1,5-a]pyridine-7-carbonitrile] yielded an IC50 of 58 nM.
`C[C@@H]1CN(c2ccc(C#N)n3nccc23)C[C@H](CN2CCNCC2Cc2ccccc2)O1` (stereo partly drawn) [Example 59, 4-[(2S,6R)-2-[(2-benzylpiperazin-1-yl)methyl]-6-methyl-morpholin-4-yl]pyrazolo[1,5-a]pyridine-7-carbonitrile] showed an IC50 of 6 nM.
`C[C@@H]1CN(c2ccc(C#N)n3nccc23)C[C@H](CN2CCC3(CC2)CNCCO3)O1` [Example 60, 4-[(2R,6S)-2-methyl-6-(1-oxa-4,9-diazaspiro[5.5]undecan-9-ylmethyl)morpholin-4-yl]pyrazolo[1,5-a]pyridine-7-carbonitrile] was tested, and the IC50 was 96 nM.
Compound `C[C@@H]1CN(c2ccc(C#N)n3nccc23)C[C@H](CN2CCCC3CNCC32)O1` (stereo partly drawn) [Example 61, 4-[(2S,6R)-2-(2,3,4,4a,5,6,7,7a-octahydropyrrolo[3,4-b]pyridin-1-ylmethyl)-6-methyl-morpholin-4-yl]pyrazolo[1,5-a]pyridine-7-carbonitrile] has an IC50 of 300 nM.
`C[C@@H]1CN(c2ccc(C#N)n3nccc23)C[C@H](CN2CC[C@@H]3CNCC32)O1` (stereo partly drawn) [Example 62, 4-[(2R,6S)-2-methyl-6-[[cis-(3aR,6aR)-3,3a,4,5,6,6a-hexahydro-2H-pyrrolo[3,4-b]pyrrol-1-yl]methyl]morpholin-4-yl]pyrazolo[1,5-a]pyridine-7-carbonitrile] showed an IC50 of 260 nM.
`C[C@@H]1CN(c2ccc(C#N)n3nccc23)C[C@H](CN2CCC[C@@H]3NCCC32)O1` (stereo partly drawn) [Example 63, 4-[(2R,6S)-2-methyl-6-[[cis-(3aS,7aS)-1,2,3,3a,5,6,7,7a-octahydropyrrolo[3,2-b]pyridin-4-yl]methyl]morpholin-4-yl]pyrazolo[1,5-a]pyridine-7-carbonitrile] gave an IC50 of 44 nM.
With `C[C@@H]1CN(c2ccc(C#N)n3nccc23)C[C@H](CN2CCCC3NCCCC32)O1` (stereo partly drawn) [Example 64, 4-[(2S,6R)-2-(3,4,4a,5,6,7,8,8a-octahydro-2H-1,5-naphthyridin-1-ylmethyl)-6-methyl-morpholin-4-yl]pyrazolo[1,5-a]pyridine-7-carbonitrile] the IC50 was 120 nM.
Compound `C[C@@H]1CN(c2ccc(C#N)n3nccc23)C[C@H](CN2C3CCCC2CC(N)C3)O1` (stereo partly drawn) [Example 65, Endo-4-[(2S,6R)-2-[(3-amino-9-azabicyclo[3.3.1]nonan-9-yl)methyl]-6-methyl-morpholin-4-yl]pyrazolo[1,5-a]pyridine-7-carbonitrile] has an IC50 of 64 nM.
In the case of `C[C@@H]1CN(c2ccc(C#N)n3nccc23)C[C@H](CN2C3CCCC2CC(N)C3)O1` (stereo partly drawn) [Example 66, Exo-4-[(2S,6R)-2-[(3-amino-9-azabicyclo[3.3.1]nonan-9-yl)methyl]-6-methyl-morpholin-4-yl]pyrazolo[1,5-a]pyridine-7-carbonitrile], the IC50 is reported as 140 nM.
Work on `C[C@@H]1CN(c2ccc(C#N)n3ncc(F)c23)C[C@H](CN2CCCC3(CCNCC3)C2)O1` [Example 67, 4-[(2S,6R)-2-(2,9-diazaspiro[5.5]undecan-2-ylmethyl)-6-methyl-morpholin-4-yl]-3-fluoro-pyrazolo[1,5-a]pyridine-7-carbonitrile] yielded an IC50 of 38 nM.
In the case of `C[C@@H]1CN(c2ccc(C#N)n3ncc(F)c23)C[C@H](CN2CCCC3(CCNC3)C2)O1` (stereo partly drawn) [Example 68, 3-fluoro-4-[(2S,6R)-2-(2,7-diazaspiro[4.5]decan-7-ylmethyl)-6-methyl-morpholin-4-yl]pyrazolo[1,5-a]pyridine-7-carbonitrile], the IC50 is reported as 11 nM.
`C[C@@H]1CN(c2ccc(C#N)n3ncc(F)c23)C[C@H](CN2CCC3(CCCNC3)C2)O1` (stereo partly drawn) [Example 69, 3-fluoro-4-[(2S,6R)-2-(2,9-diazaspiro[4.5]decan-2-ylmethyl)-6-methyl-morpholin-4-yl]pyrazolo[1,5-a]pyridine-7-carbonitrile] gave an IC50 of 26 nM.
Work on `C[C@@H]1CN(c2ccc(C#N)n3nccc23)C[C@H](CN2CCC3NCC3C2)O1` (stereo partly drawn) [Example 70, 4-[(2S,6R)-2-(3,7-diazabicyclo[4.2.0]octan-3-ylmethyl)-6-methyl-morpholin-4-yl]pyrazolo[1,5-a]pyridine-7-carbonitrile] yielded an IC50 of 120 nM.
In the case of `C[C@@H]1CN(c2ccc(C#N)n3nccc23)C[C@H](CN2CCOC3(CCNCC3)C2)O1` [Example 71, 4-[(2R,6S)-2-methyl-6-(1-oxa-4,9-diazaspiro[5.5]undecan-4-ylmethyl)morpholin-4-yl]pyrazolo[1,5-a]pyridine-7-carbonitrile], the IC50 is reported as 55 nM.
Compound `C[C@@H]1CN(c2ccc(C#N)n3nccc23)C[C@H](CN2CCC(N)(c3ccccc3)CC2)O1` [Example 73, 4-[(2S,6R)-2-[(4-amino-4-phenyl-1-piperidyl)methyl]-6-methyl-morpholin-4-yl]pyrazolo[1,5-a]pyridine-7-carbonitrile] has an IC50 of 47 nM.
Compound `C[C@@H]1CN(c2ccc(C#N)n3nccc23)C[C@H](CN2CC[C@H](N)[C@H](C)C2)O1` [Example 74, 4-[(2S,6R)-2-[[(3R,4S)-4-amino-3-methyl-1-piperidyl]methyl]-6-methyl-morpholin-4-yl]pyrazolo[1,5-a]pyridine-7-carbonitrile] has an IC50 of 39 nM.
`C[C@@H]1CN(c2ccc(C#N)n3nccc23)C[C@H](CN2CCC3(CN(C)CCO3)C2)O1` (stereo partly drawn) [Example 76, 4-[(2R,6S)-2-methyl-6-[(9-methyl-6-oxa-2,9-diazaspiro[4.5]decan-2-yl)methyl]morpholin-4-yl]pyrazolo[1,5-a]pyridine-7-carbonitrile] gave an IC50 of 340 nM.
